Laboratory results published in US12715858B2, “Pyridazinone compounds” (INVENTISBIO CO., LTD., priority 2020, dated 2026).
Values after ≈ are worked out from the molar mass of the structure shown. Like-named read-outs stand apart in the source and are kept apart here.

How the values were obtained:
Assay type in all cases: physicochemical
[1] = Slurry study of Form II at 50° C.; settings: MeOH, ACN, acetone, EA and water at 50° C., after 1 day
Method: In addition, slurry study of Form II was performed in MeOH, ACN, acetone, EA and water at 50° C., respectively.

[2] = Solid state stability at 60° C. and 40° C./75% RH for 7 days (HPLC purity, XRPD); settings: for Purity at Day 7 (Area %) 40° C./75% RH: 7 days at 40° C./75% RH; for Purity at Day 7 (Area %) 40° C./75% RH / Purity at Day 7 (Area %) 60° C.: HPLC; for Purity at Day 7 (Area %) 60° C.: 7 days at 60° C.; for XRPD 40° C./75% RH: crystal form after 7 days at 40° C./75% RH; for XRPD 60° C.: crystal form after 7 days at 60° C.; for Initial Purity (Area %): day 0, HPLC
Method: HPLC analysis was performed with an Agilent HPLC 1260 series instrument.
Appropriate amount of free acid Form I, potassium salts Form 1 and Form 2, and sodium salt Form A were placed at 60° C. and 40° C./75% RH for 7 days. At 0 and 7 days, the samples were dissolved in diluent to prepare a solution of 0.5 mg/mL for HPLC purity analysis. Solid samples were analyzed by XRPD to check the crystal form.

[3] = Physical stability upon grinding and high humidity; settings: for crystal form (XRPD) after grinding / crystallinity after grinding: ground manually, up to 5 min
Method: Physical stability of Form I was evaluated upon grinding and high humidity (RT/92.5% RH for 24 days). For mechanical treatment study, Form I (10 mg) was ground manually for 5 min, and the sample was analyzed by XRPD after grinding for 2 and 5 min, respectively.

[4] = Dynamic Vapor Sorption (DVS); settings: for hygroscopicity: DVS; for crystal form of solid after the DVS study: XRPD after DVS; for water uptake / weight gain by DVS: at 80% RH (Form I: 0 to 80% RH), 25° C.
Method: Dynamic Vapor Sorption (DVS): Moisture sorption/desorption data was collected on a IGASorp DVS. The sample was placed into a tarred sample chamber and weighed automatically. The sample was dried at 50° C. until the % RH was less than 0.3% and cooled to 25° C. Set the instrument parameters as below.

[5] = Solubility in water and bio-relevant media at 37° C. (HPLC of filtrate, pH of filtrate, XRPD of filter cake); settings: for solubility at 24 h / solubility at 0.5 h / solubility at 2 h: thermodynamic from solid; for solubility at 24 h / Solubility (mg/mL) 0.5 h / Solubility (mg/mL) 2 h / Solubility (mg/mL) 24 h / solubility at 0.5 h / solubility at 2 h: 37° C.; for solubility at 24 h: read-out: Solubility (mg/mL) 24 h; for XRPD: filter cake obtained at 2 or 24 hours; for PH 0.5 h / PH 2 h / PH 24 h: pH of the filtrate; for solubility at 0.5 h: read-out: Solubility (mg/mL) 0.5 h; for solubility at 2 h: read-out: Solubility (mg/mL) 2 h
Method: Solubility of Form I of free acid, Form 1 and Form 2 of potassium salt, and Form A of sodium salt were tested in water and in bio-relevant media of Simulated Intestinal Fluid (SIF), Simulated Gastric Fluid (SGF), Fasted State Simulated Intestinal Fluid (FaSSIF), and Fed State Simulated Intestinal Fluid (FeSSIF) at 37° C. up to 24 hours. About 12 mg of the sample was weighed into sample vials and then 1.5 mL of each media was added to make suspensions respectively. All suspensions were shaken at 37° C. with 200 rpm.

[6] = Interconversion study of potassium salt Form 1 and Form 2 (slurry of equal amounts); settings: slurry in MeOH/EA and acetone/water, RT or 50° C.
Method: Interconversion study were performed in MeOH/EA (1/9, RT or 50° C.) and acetone/water (20/1, RT or 50° C.). Equal amounts of Form 1 and Form 2 were slurried in specified solvents at different temperatures for certain time.

[7] = Water activity study of potassium salt Form 1 in MeOH/water; settings: for Result (XRPD form): 24 h
Method: Form 1 was further tested to determine the influence of water on the crystalline form. Thus, 15 mg of potassium salt Form 1 was added into 0.3 mL of MeOH/water (with various amounts of water), and then the suspension was kept stirring at 25° C. for 24 h. The solid was collected by filtration and characterized by XRPD.

[8] = FeSSIF (Fed State Simulated Intestinal Fluid), 37 °C, fessif, FeSSIF
[9] = water, 37 °C, water, Water, LOQ is 0.5 μg/mL

Cc1nn(-c2cc(Cl)c(Oc3cc(C(C)C)c(=O)[nH]n3)c(Cl)c2)c(=O)[nH]c1=O [Form II]
form conversion in slurry [1]: completely converted to Form I

Cc1nn(-c2cc(Cl)c(Oc3cc(C(C)C)c(=O)[nH]n3)c(Cl)c2)c(=O)[nH]c1=O [Free acid Form I, 2-(3,5-dichloro-4-((5-isopropyl-6-oxo-1,6-dihydropyridazin-3-yl)oxy)phenyl)-6-methyl-1,2,4-triazine-3,5(2H,4H)-dione]
Purity at Day 7 (Area %) 40° C./75% RH [2]: 96.42 Area %
Purity at Day 7 (Area %) 60° C. [2]: 96.47 Area %
XRPD 40° C./75% RH [2]: Unchanged
XRPD 60° C. [2]: Unchanged
Initial Purity (Area %) [2]: 96.45 Area %
form change upon high humidity ([3]; RT/92.5% RH for 24 days): no form change was observed
crystal form (XRPD) after grinding [3]: remained unchanged
crystallinity after grinding [3]: significantly decreased
hygroscopicity [4]: slightly hygroscopic
crystal form of solid after the DVS study [4]: remained unchanged
water uptake / weight gain by DVS [4]: 0.9%
solubility at 24 h ([5]; FaSSIF (Fasted State Simulated Intestinal Fluid), FaSSIF): 0.00052 mg/mL (≈ 1.23 µM)
Solubility (mg/mL) 0.5 h ([5]; FaSSIF, LOQ is 0.5 μg/mL): <LOQ
Solubility (mg/mL) 2 h ([5]; FaSSIF, LOQ is 0.5 μg/mL): <LOQ
Solubility (mg/mL) 0.5 h ([5]; SGF, LOQ is 0.5 μg/mL): <LOQ
Solubility (mg/mL) 2 h ([5]; SGF, LOQ is 0.5 μg/mL): <LOQ
Solubility (mg/mL) 24 h ([5]; SGF, LOQ is 0.5 μg/mL): <LOQ
Solubility (mg/mL) 0.5 h ([5]; SIF, LOQ is 0.5 μg/mL): <LOQ
Solubility (mg/mL) 2 h ([5]; SIF, LOQ is 0.5 μg/mL): <LOQ
Solubility (mg/mL) 24 h ([5]; SIF, LOQ is 0.5 μg/mL): <LOQ
Solubility (mg/mL) 0.5 h ([5]; Water, LOQ is 0.5 μg/mL): <LOQ
Solubility (mg/mL) 2 h ([5]; Water, LOQ is 0.5 μg/mL): <LOQ
Solubility (mg/mL) 24 h ([5]; Water, LOQ is 0.5 μg/mL): <LOQ
XRPD ([5]; FaSSIF): unchanged
XRPD ([5]; SGF): unchanged
XRPD ([5]; SIF): unchanged
XRPD ([5]; Water): unchanged
PH 0.5 h ([5]; FaSSIF): 6.72
PH 2 h ([5]; FaSSIF): 6.60
PH 24 h ([5]; FaSSIF): 6.74
PH 0.5 h ([5]; FeSSIF): 4.91
PH 2 h ([5]; FeSSIF): 4.86
PH 24 h ([5]; FeSSIF): 5.00
PH 0.5 h ([5]; SGF): 1.17
PH 2 h ([5]; SGF): 1.19
PH 24 h ([5]; SGF): 1.16
PH 0.5 h ([5]; SIF): 6.89
PH 2 h ([5]; SIF): 6.86
PH 24 h ([5]; SIF): 6.79
PH 0.5 h ([5]; Water): 6.48
PH 2 h ([5]; Water): 6.59
PH 24 h ([5]; Water): 6.44
solubility at 0.5 h ([5]; FeSSIF): 0.00056 mg/mL (≈ 1.32 µM)
solubility at 2 h ([5]; FeSSIF): 0.001 mg/mL (≈ 2.36 µM)
solubility at 24 h ([5]; FeSSIF): 0.0011 mg/mL (≈ 2.59 µM)

Cc1nn(-c2cc(Cl)c(Oc3cc(C(C)C)c(=O)[nH]n3)c(Cl)c2)c(=O)[n-]c1=O.[K+] [Potassium salt Form 1]
chemical and physical stability ([2]; 40° C./75% RH and 60° C. for 7 days): chemically and physically stable
Purity at Day 7 (Area %) 40° C./75% RH [2]: 99.29 Area %
Purity at Day 7 (Area %) 60° C. [2]: 99.50 Area %
XRPD 40° C./75% RH [2]: Unchanged
XRPD 60° C. [2]: Unchanged
Initial Purity (Area %) [2]: 99.23 Area %
crystal form (XRPD) after grinding [3]: remained unchanged
crystallinity after grinding [3]: decreased
relative stability of Form 1 and Form 2 [6]: more stable in non-aqueous system
DVS Water % at 80% RH ([4]; 80% RH, forms of potassium salt of Compound 1): 1.8%
hygroscopicity [4]: slight hygroscopic
crystal form of solid after the DVS study [4]: remained unchanged
water uptake / weight gain by DVS [4]: 1.8%
Result (XRPD form) ([7]; MeOH/water (80/20), Aw 0.3598, 25° C.): Form 1 + 2
Result (XRPD form) ([7]; MeOH/water (86/14), Aw 0.2679, 25° C.): Form 1 + 2
Result (XRPD form) ([7]; MeOH/water (90/10), Aw 0.1998, 25° C.): Form 1 + 2
Result (XRPD form) ([7]; MeOH/water (95/5), Aw 0.1058, 25° C.): Form 2
Result (XRPD form) ([7]; MeOH/water (97/3), Aw 0.065, 25° C.): Form 2
Result (XRPD form) ([7]; MeOH/water (99/1), Aw 0.021, 25° C.): Form 1 + 2
Result (XRPD form) ([7]; MeOH/water (99.5/0.5), Aw 0.010, 25° C.): Form 1
Result (XRPD form) ([7]; MeOH/water (100/0), Aw 0, 25° C.): Form 1
water activity at which Form 1 has the tendency to convert to Form 2 ([7]; after 24 h, 0.5% of water content): > 0.01
solubility at 2 h ([5]; FaSSIF (Fasted State Simulated Intestinal Fluid), 37 °C, fassif, FaSSIF, LOQ is 0.5 μg/mL): 0.013 mg/mL
solubility at 24 h ([5]; FaSSIF (Fasted State Simulated Intestinal Fluid), 37 °C, fassif, FaSSIF): 0.0064 mg/mL
Solubility (mg/mL) 0.5 h ([5]; FaSSIF, LOQ is 0.5 μg/mL): <LOQ
solubility at 2 h [5, 8]: 0.0089 mg/mL
solubility at 24 h [5, 8]: 0.013 mg/mL
Solubility (mg/mL) 0.5 h ([5]; FeSSIF): 0.0017 mg/mL
Solubility (mg/mL) 0.5 h ([5]; SGF, LOQ is 0.5 μg/mL): <LOQ
Solubility (mg/mL) 2 h ([5]; SGF, LOQ is 0.5 μg/mL): <LOQ
Solubility (mg/mL) 24 h ([5]; SGF, LOQ is 0.5 μg/mL): <LOQ
Solubility (mg/mL) 0.5 h ([5]; SIF, LOQ is 0.5 μg/mL): <LOQ
Solubility (mg/mL) 2 h ([5]; SIF, LOQ is 0.5 μg/mL): <LOQ
Solubility (mg/mL) 24 h ([5]; SIF, LOQ is 0.5 μg/mL): <LOQ
XRPD ([5]; FaSSIF): Free acid
XRPD ([5]; FeSSIF): Free acid
XRPD ([5]; SGF): Free acid
XRPD ([5]; SIF): Free acid
XRPD ([5]; Water): Free acid
PH 0.5 h ([5]; FaSSIF): 7.03
PH 2 h ([5]; FaSSIF): 7.36
PH 24 h ([5]; FaSSIF): 8.29
PH 0.5 h ([5]; FeSSIF): 5.06
PH 2 h ([5]; FeSSIF): 5.21
PH 24 h ([5]; FeSSIF): 5.24
PH 0.5 h ([5]; SGF): 1.18
PH 2 h ([5]; SGF): 1.26
PH 24 h ([5]; SGF): 1.25
PH 0.5 h ([5]; SIF): 7.52
PH 2 h ([5]; SIF): 7.52
PH 24 h ([5]; SIF): 7.44
PH 0.5 h ([5]; Water): 11.02
PH 2 h ([5]; Water): 11.00
PH 24 h ([5]; Water): 10.57
solubility at 0.5 h [5, 9]: 5.79 mg/mL
solubility at 2 h [5, 9]: 5.28 mg/mL
solubility at 24 h [5, 9]: 5.15 mg/mL
